Data: patent publication US11673889B2, “Substituted imidazo[4,5-c][1,8]naphthyridines as phosphodiesterase inhibitors” (Nanjing Zhengxiang Pharmaceuticals Co., Ltd., priority 2019, dated 2023)

Key:
Pharmacokinetics in mice = assay type: in vivo; settings: mouse, plasma, male CD-1 mice, 1 mg/kg, iv
Description: A dosing solution of test sample was prepared at 1.0 mg/mL in 5% DMSO/40% PEG400/55% water and administered to male CD-1 mice (4-6 weeks old, 20-30 grams, 3 animals each group) via intravenous (IV) bolus at 1 mg/kg and by oral gavage (PO) at 5 mg/kg. Blood samples (˜0.03 mL each time point) were collected via the jugular vein into tubes containing sodium heparin as the anticoagulant at 0.033, 0.083, 0.25, 0.5, 1, 2, 4, 8 and 24 hours post dose for IV administration and 0.083, 0.25, 0.5, 1, 2, 4, 8 and 24 hours post dose for PO administration. The blood samples were then centrifuged for 5 minutes in a centrifuge refrigerated at 4° C. The resultant plasma samples were analyzed using LC/MS/MS to determine concentrations of test sample. Non-compartmental model with WinNonlin (Phoenix™, version 8.0) software was used to calculate pharmacokinetic (PK) parameters.

human soluble ENPP1 [1] = molecular target: T1, human soluble ENPP1 (Homo sapiens, UniProt P22413); test: ENPP1 activity assay using p-Nitrophenyl-5′-TMP as a substrate; assay type: biochemical
T1 construct: 20 ng of human soluble ENPP1
T1 sequence (P22413 103-925 limits assumed): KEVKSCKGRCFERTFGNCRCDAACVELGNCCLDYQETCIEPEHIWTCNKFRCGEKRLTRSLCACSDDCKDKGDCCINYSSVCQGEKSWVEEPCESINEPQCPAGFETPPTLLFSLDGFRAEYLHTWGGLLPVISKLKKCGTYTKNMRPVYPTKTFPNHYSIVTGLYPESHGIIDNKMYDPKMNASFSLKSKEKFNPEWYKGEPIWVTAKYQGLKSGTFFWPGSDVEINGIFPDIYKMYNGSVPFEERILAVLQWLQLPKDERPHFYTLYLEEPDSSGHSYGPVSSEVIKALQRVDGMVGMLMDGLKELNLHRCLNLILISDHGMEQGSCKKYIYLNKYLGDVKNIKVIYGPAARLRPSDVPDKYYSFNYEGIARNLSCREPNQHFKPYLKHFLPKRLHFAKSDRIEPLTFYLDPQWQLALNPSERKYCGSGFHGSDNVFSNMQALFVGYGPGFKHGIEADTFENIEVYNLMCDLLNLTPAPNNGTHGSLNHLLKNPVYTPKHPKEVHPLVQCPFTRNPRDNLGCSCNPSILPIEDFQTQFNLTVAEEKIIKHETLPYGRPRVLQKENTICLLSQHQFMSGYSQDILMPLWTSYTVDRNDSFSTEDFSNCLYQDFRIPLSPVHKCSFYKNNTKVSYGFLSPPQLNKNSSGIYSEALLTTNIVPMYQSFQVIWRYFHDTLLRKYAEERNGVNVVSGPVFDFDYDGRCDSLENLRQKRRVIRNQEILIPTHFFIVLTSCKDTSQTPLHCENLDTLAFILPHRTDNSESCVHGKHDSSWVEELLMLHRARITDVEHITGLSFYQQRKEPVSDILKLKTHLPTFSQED
Summary of the method: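 Human soluble ENPP1 (20 ng) was preincubated with inhibitor for 30 min at room temperature. TMP-pNP was then added as a 2 mM […] solution and incubated 1 h at RT, with p-nitrophenol formation read by OD. IC50 came from four-parameter fits of % inhibition relative to no-inhibitor and blank controls.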

human soluble ENPP1 [2] = molecular target: T1, human soluble ENPP1; test: ENPP1 activity assay using p-Nitrophenyl-5′-AMP as a substrate; assay type: biochemical
Summary of the method: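 Human soluble ENPP1 (35 ng) preincubated with inhibitor 30 min at RT, then p-nitrophenyl-5′-AMP added (3 mM solution, 2× final) and incubated 1 h at RT. p-Nitrophenolate release read at OD 405 nm; % inhibition vs no-inhibitor and blank controls, IC50 from four-parameter fit.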

ENPP-1, MDA-MB-231 cells = molecular target: T2, ENPP-1, MDA-MB-231 cells (Homo sapiens, UniProt P22413); test: cell-based; settings: for inhibition at 20 µM: MDA-MB-231, read-out: % Inhibition (at 20 μM)
T2 sequence (P22413 1-925): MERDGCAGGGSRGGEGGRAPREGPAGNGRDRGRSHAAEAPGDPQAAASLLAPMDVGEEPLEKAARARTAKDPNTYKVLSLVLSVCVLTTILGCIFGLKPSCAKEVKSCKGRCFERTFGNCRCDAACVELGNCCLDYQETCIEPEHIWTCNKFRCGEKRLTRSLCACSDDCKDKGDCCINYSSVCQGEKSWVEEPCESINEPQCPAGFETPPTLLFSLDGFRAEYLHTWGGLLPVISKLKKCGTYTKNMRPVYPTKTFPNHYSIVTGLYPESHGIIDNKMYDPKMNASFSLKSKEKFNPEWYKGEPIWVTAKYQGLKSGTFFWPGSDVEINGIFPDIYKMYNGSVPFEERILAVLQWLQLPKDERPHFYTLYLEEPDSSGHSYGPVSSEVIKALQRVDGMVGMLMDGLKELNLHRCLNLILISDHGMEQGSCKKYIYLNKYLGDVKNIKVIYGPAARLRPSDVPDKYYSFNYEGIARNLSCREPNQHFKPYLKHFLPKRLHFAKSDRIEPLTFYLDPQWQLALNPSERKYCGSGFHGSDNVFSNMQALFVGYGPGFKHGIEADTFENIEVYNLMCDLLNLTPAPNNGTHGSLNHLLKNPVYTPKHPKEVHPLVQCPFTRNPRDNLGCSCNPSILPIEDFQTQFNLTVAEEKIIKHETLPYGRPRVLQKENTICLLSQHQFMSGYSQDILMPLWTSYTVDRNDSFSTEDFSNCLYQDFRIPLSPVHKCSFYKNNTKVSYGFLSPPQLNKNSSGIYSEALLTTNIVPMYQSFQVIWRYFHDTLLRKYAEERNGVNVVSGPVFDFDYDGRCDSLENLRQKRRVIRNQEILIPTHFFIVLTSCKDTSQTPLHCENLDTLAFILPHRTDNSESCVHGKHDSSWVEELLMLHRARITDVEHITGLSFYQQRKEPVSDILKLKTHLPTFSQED

[3] = substrate TMP-pNP, 20 ng human soluble ENPP1, Tris buffer pH 9.5, read-out: TMP-pNP (IC50)

COc1ccc2c(ncc3[nH]c(=O)n(Cc4ccc(S(N)(=O)=O)cc4)c32)n1 [Compound 38, 4-((7-methoxy-2-oxo-2,3-dihydro-1H-imidazo[4,5-c][1,8]naphthyridin-1-yl)methyl)benzenesulfonamide]
AUC (Pharmacokinetics in mice): 370 ng·h/mL
clearance (Pharmacokinetics in mice): 45 mL/min/kg
half-life (Pharmacokinetics in mice): 1.9 h
Vd (Pharmacokinetics in mice; read-out: Vdss): 3.3 L/kg
IC50 (human soluble ENPP1 [1]): 0.31 nM
IC50 (human soluble ENPP1 [2]): 0.75 nM

COc1ccc2c(ncc3[nH]c(=O)n(Cc4c(F)cc(C(=O)O)cc4F)c32)n1 [Compound 108, 3,5-difluoro-4-((7-methoxy-2-oxo-2,3-dihydro-1H-imidazo[4,5-c][1,8]naphthyridin-1-yl)methyl)benzoic acid]
IC50 (human soluble ENPP1 [1]): 16 nM
IC50 (human soluble ENPP1 [2]): 66 nM
IC50 (ENPP-1, MDA-MB-231 cells): 5700 nM
inhibition at 20 µM (ENPP-1, MDA-MB-231 cells): 64%

COc1ccc2c(ncc3[nH]c(=O)n(Cc4c(F)cc(C(=O)NO)cc4F)c32)n1 [Compound 110, 3,5-difluoro-N-hydroxy-4-((7-methoxy-2-oxo-2,3-dihydro-1H-imidazo[4,5-c][1,8]naphthyridin-1-yl)methyl)benzamide]
IC50 (human soluble ENPP1 [1]; [3]): 0.6 nM
IC50 (human soluble ENPP1 [2]): 2.6 nM
IC50 (ENPP-1, MDA-MB-231 cells): 150 nM
inhibition at 20 µM (ENPP-1, MDA-MB-231 cells): 86%

COc1ccc2c(ncc3[nH]c(=O)n(Cc4c(F)cc(B(O)O)cc4F)c32)n1 [Compound 111, (3,5-difluoro-4-((7-methoxy-2-oxo-2,3-dihydro-1H-imidazo[4,5-c][1,8]naphthyridin-1-yl)methyl)phenyl)boronic acid]
IC50 (human soluble ENPP1 [1]; [3]): 7.4 nM
IC50 (human soluble ENPP1 [2]): 21 nM
IC50 (ENPP-1, MDA-MB-231 cells): 0.31 nM
inhibition at 20 µM (ENPP-1, MDA-MB-231 cells): 80%

COc1ccc2c(ncc3[nH]c(=O)n(Cc4c(F)cc(S(N)(=O)=O)c(F)c4F)c32)n1 [Compound 112, 2,3,5-trifluoro-4-((7-methoxy-2-oxo-2,3-dihydro-1H-imidazo[4,5-c][1,8]naphthyridin-1-yl)methyl)benzenesulfonamide]
IC50 (human soluble ENPP1 [1]; [3]): 0.3 nM
IC50 (human soluble ENPP1 [2]): 0.99 nM
IC50 (ENPP-1, MDA-MB-231 cells): 70 nM
inhibition at 20 µM (ENPP-1, MDA-MB-231 cells): 80%

COc1ccc2c(n1)nc(C)c1[nH]c(=O)n(Cc3c(F)cc(S(N)(=O)=O)cc3F)c12 [Compound 113, 3,5-difluoro-4-((7-methoxy-4-methyl-2-oxo-2,3-dihydro-1H-imidazo[4,5-c][1,8]naphthyridin-1-yl)methyl)benzenesulfonamide]
IC50 (human soluble ENPP1 [1]; [3]): 1.1 nM
IC50 (human soluble ENPP1 [2]): 5 nM
IC50 (ENPP-1, MDA-MB-231 cells): 250 nM
inhibition at 20 µM (ENPP-1, MDA-MB-231 cells): 72%

COc1ccc2c(ncc3c2n(Cc2c(F)cc(S(N)(=O)=O)cc2F)c(=O)n3CCO)n1 [Compound 115, 3,5-difluoro-4-((3-(2-hydroxyethyl)-7-methoxy-2-oxo-2,3-dihydro-1H-imidazo[4,5-c][1,8]naphthyridin-1-yl)methyl)benzenesulfonamide]
IC50 (human soluble ENPP1 [1]; [3]): 0.11 nM
IC50 (human soluble ENPP1 [2]): 0.32 nM
IC50 (ENPP-1, MDA-MB-231 cells): 56 nM
inhibition at 20 µM (ENPP-1, MDA-MB-231 cells): 78%

COc1ccc2c(ncc3cnn(Cc4ccc(S(N)(=O)=O)cc4)c32)n1 [Compound 116, 4-((7-methoxy-1H-pyrazolo[4,3-c][1,8]naphthyridin-1-yl)methyl)benzenesulfonamide]
IC50 (human soluble ENPP1 [1]): 0.38 nM
IC50 (human soluble ENPP1 [2]): 1.8 nM
IC50 (ENPP-1, MDA-MB-231 cells): 1800 nM
inhibition at 20 µM (ENPP-1, MDA-MB-231 cells): 68%

COc1ccc2c(ncc3ccn(Cc4ccc(S(N)(=O)=O)cc4)c32)n1 [Compound 117, 4-((7-methoxy-1H-pyrrolo[3,2-c][1,8]naphthyridin-1-yl)methyl)benzenesulfonamide]
IC50 (human soluble ENPP1 [1]): 8.1 nM
IC50 (human soluble ENPP1 [2]): 34 nM
IC50 (ENPP-1, MDA-MB-231 cells): 16000 nM
inhibition at 20 µM (ENPP-1, MDA-MB-231 cells): 16%

COc1ccc2c(c1)nnc1[nH]c(=O)n(Cc3ccc(S(N)(=O)=O)cc3F)c12 [Compound 123, 3-fluoro-4-((7-methoxy-2-oxo-2,3-dihydro-1H-imidazo[4,5-c]cinnolin-1-yl)methyl)benzenesulfonamide]
IC50 (human soluble ENPP1 [1]; [3]): 0.61 nM
IC50 (human soluble ENPP1 [2]): 2.4 nM
IC50 (ENPP-1, MDA-MB-231 cells): 1800 nM
inhibition at 20 µM (ENPP-1, MDA-MB-231 cells): 66%

COc1ccc2c(ncc3[nH]c(=O)n(Cc4c(F)cc(P(=O)(O)O)cc4F)c32)n1 [Compound 124, (3,5-difluoro-4-((7-methoxy-2-oxo-2,3-dihydro-1H-imidazo[4,5-c][1,8]naphthyridin-1-yl)methyl)phenyl)phosphonic acid]
IC50 (human soluble ENPP1 [1]): 19 nM
IC50 (human soluble ENPP1 [2]): 56 nM
IC50 (ENPP-1, MDA-MB-231 cells): 9.6 nM
inhibition at 20 µM (ENPP-1, MDA-MB-231 cells): 86%

COc1ccc2c(ncc3nc(C)n(Cc4cc(F)c(P(=O)(O)O)cc4F)c32)n1 [Compound 125, (2,5-difluoro-4-((7-methoxy-2-methyl-1H-imidazo[4,5-c][1,8]naphthyridin-1-yl)methyl)phenyl)phosphonic acid]
IC50 (human soluble ENPP1 [1]): 7.2 nM
IC50 (human soluble ENPP1 [2]): 21 nM
IC50 (ENPP-1, MDA-MB-231 cells): 2.7 nM
inhibition at 20 µM (ENPP-1, MDA-MB-231 cells): 82%

COc1ccc2c(ncc3c2n(Cc2c(F)cc(S(N)(=O)=O)cc2F)c(=O)n3CC(F)(F)F)n1 [Compound 131, 3,5-difluoro-4-((7-methoxy-2-oxo-3-(2,2,2-trifluoroethyl)-2,3-dihydro-1H-imidazo[4,5-c][1,8]naphthyridin-1-yl)methyl)benzenesulfonamide]
IC50 (human soluble ENPP1 [1]; [3]): 0.04 nM
IC50 (human soluble ENPP1 [2]): 0.19 nM
IC50 (ENPP-1, MDA-MB-231 cells): 80 nM
inhibition at 20 µM (ENPP-1, MDA-MB-231 cells): 88%

COCCn1c(=O)n(Cc2c(F)cc(S(N)(=O)=O)cc2F)c2c3ccc(OC)nc3ncc21 [Compound 132, 3,5-difluoro-4-((7-methoxy-3-(2-methoxyethyl)-2-oxo-2,3-dihydro-1H-imidazo[4,5-c][1,8]naphthyridin-1-yl)methyl)benzenesulfonamide]
IC50 (human soluble ENPP1 [1]; [3]): 0.33 nM
IC50 (human soluble ENPP1 [2]): 0.74 nM
inhibition at 20 µM (ENPP-1, MDA-MB-231 cells): 87%

COc1ccc2c(ncc3cnn(Cc4ccc(S(N)(=O)=O)cn4)c32)n1 [Compound 135a, 6-((7-methoxy-1H-pyrazolo[4,3-c][1,8]naphthyridin-1-yl)methyl)pyridine-3-sulfonamide]
IC50 (human soluble ENPP1 [1]): 0.66 nM
IC50 (human soluble ENPP1 [2]): 1.4 nM
IC50 (ENPP-1, MDA-MB-231 cells): 80 nM
inhibition at 20 µM (ENPP-1, MDA-MB-231 cells): 88%

COc1ccc2c(n1)nc(C)c1nnn(Cc3ccc(S(N)(=O)=O)cn3)c12 [Compound 136, 6-((7-methoxy-4-methyl-1H-[1,2,3]triazolo[4,5-c][1,8]naphthyridin-1-yl)methyl)pyridine-3-sulfonamide]
IC50 (human soluble ENPP1 [1]): 7.4 nM
IC50 (human soluble ENPP1 [2]): 21 nM
IC50 (ENPP-1, MDA-MB-231 cells): 0.31 nM
inhibition at 20 µM (ENPP-1, MDA-MB-231 cells): 80%
